Experimental data reported in ChEMBL document CHEMBL3784961, “Kinetics and metabolism of paracetamol and phenacetin” (Br J Clin Pharmacol, 1980).

Tests used:
[1] = test system: Homo sapiens; experiment: Renal clearance in healthy human assessed as paracetamol sulfate level at 20 mg/kg; format: ADME, organism-based, Kidney; details: in vivo
[2] = test system: Homo sapiens; experiment: Drug recovery in poisoned human patient (8 patients) with severe liver damage receiving supportive treatment assessed as mercapturate plus cysteine conjugate level at 20 mg/kg, po; format: ADME, organism-based; details: in vivo
[3] = test system: Homo sapiens; experiment: Drug recovery in poisoned human patient (9 patients) without liver damage receiving supportive treatment assessed as glucuronide conjugate level at 20 mg/kg, po; format: ADME, organism-based; details: in vivo
[4] = Systemic availability in healthy adult male human subject at 12 mg/kg, po; format: ADME, organism-based; details: in vivo
[5] = test system: Homo sapiens; experiment: Drug recovery in poisoned human patient (8 patients) without liver damage receiving methionine treatment assessed as sulphate conjugate level at 20 mg/kg, po; format: ADME, organism-based; details: in vivo
[6] = test system: Homo sapiens; experiment: Drug recovery in poisoned human patient (23 patients) without liver damage receiving NAC treatment assessed as mercapturate plus cysteine conjugate level at 20 mg/kg, po; format: ADME, organism-based; details: in vivo
[7] = test system: Homo sapiens; experiment: Drug recovery in poisoned human patient (8 patients) without liver damage receiving methionine treatment assessed as mercapturate plus cysteine conjugate level at 20 mg/kg, po; format: ADME, organism-based; details: in vivo
[8] = test system: Homo sapiens; experiment: Drug recovery in poisoned human patient (3 patients) with severe liver damage receiving methionine treatment assessed as mercapturate plus cysteine conjugate level at 20 mg/kg, po; format: ADME, organism-based; details: in vivo
[9] = test system: Homo sapiens; experiment: Drug recovery in poisoned human patient (9 patients) without liver damage receiving supportive treatment assessed as mercapturate plus cysteine conjugate level at 20 mg/kg, po; format: ADME, organism-based; details: in vivo
[10] = Volume of distribution at central compartment in healthy adult male human subject at 12 mg/kg, iv; details: in vivo
[11] = Volume of distribution in 70 kg adult human at 12 mg/kg, iv infused over 2 mins; details: in vivo
[12] = test system: Homo sapiens; experiment: Drug recovery in poisoned human patient (8 patients) with severe liver damage receiving NAC treatment assessed as sulphate conjugate level at 20 mg/kg, po; format: ADME, organism-based; details: in vivo
[13] = test system: Homo sapiens; experiment: Drug recovery in poisoned human patient (8 patients) with severe liver damage receiving NAC treatment assessed as glucuronide conjugate level at 20 mg/kg, po; format: ADME, organism-based; details: in vivo
[14] = Systemic availability in human; format: ADME, organism-based; details: in vivo
[15] = Half life in elderly human; format: ADME, organism-based; details: in vivo
[16] = test system: Homo sapiens; experiment: Drug recovery in poisoned human patient (15 patients) without liver damage receiving cysteamine treatment assessed as sulphate conjugate level at 20 mg/kg, po; format: ADME, organism-based; details: in vivo
[17] = test system: Homo sapiens; experiment: Mean drug recovery in poisoned human patient (8 patients) without liver damage receiving methionine treatment at 20 mg/kg, po; format: ADME, organism-based; details: in vivo
[18] = test system: Homo sapiens; experiment: Mean drug recovery in poisoned human patient (8 patients) with severe liver damage receiving supportive treatment at 20 mg/kg, po; format: ADME, organism-based; details: in vivo
[19] = Drug excretion in urine of healthy young adult human assessed as sulphate conjugate level after 24 hrs; format: ADME; details: in vivo
[20] = test system: Homo sapiens; experiment: Mean drug recovery in poisoned human patient (9 patients) without liver damage receiving supportive treatment at 20 mg/kg, po; format: ADME, organism-based; details: in vivo
[21] = test system: Homo sapiens; experiment: Mean drug recovery in poisoned human patient (8 patients) with severe liver damage receiving NAC treatment at 20 mg/kg, po; format: ADME, organism-based; details: in vivo
[22] = test system: Homo sapiens; experiment: Mean drug recovery in poisoned human patient (23 patients) without liver damage receiving NAC treatment at 20 mg/kg, po; format: ADME, organism-based; details: in vivo
[23] = test system: Homo sapiens; experiment: Drug recovery in poisoned human patient (9 patients) without liver damage receiving supportive treatment assessed as sulphate conjugate level at 20 mg/kg, po; format: ADME, organism-based; details: in vivo
[24] = test system: Homo sapiens; experiment: Drug recovery in poisoned human patient (8 patients) with severe liver damage receiving supportive treatment assessed as glucuronide conjugate level at 20 mg/kg, po; format: ADME, organism-based; details: in vivo
[25] = Drug excretion in urine of human at 20 mg/kg assessed as mercapturic conjugate level after 24 hrs; format: ADME, organism-based; details: in vivo
[26] = test system: Homo sapiens; experiment: Drug recovery in poisoned human patient (3 patients) with severe liver damage receiving methionine treatment assessed as glucuronide conjugate level at 20 mg/kg, po; format: ADME, organism-based; details: in vivo
[27] = Drug excretion in human urine assessed as unchanged parent compound level; format: ADME; details: read-out: Drug excretion
[28] = test system: Homo sapiens; experiment: Drug recovery in poisoned human patient (23 patients) without liver damage receiving NAC treatment assessed as sulphate conjugate level at 20 mg/kg, po; format: ADME, organism-based; details: in vivo
[29] = Drug excretion in urine of healthy young adult human assessed as unchanged parent drug level after 24 hrs; format: ADME; details: read-out: Drug excretion
[30] = Half life in healthy young adult human; format: ADME, organism-based; details: in vivo
[31] = Drug excretion in urine of healthy young adult human assessed as glucuronide conjugate level after 24 hrs; format: ADME; details: in vivo
[32] = test system: Homo sapiens; experiment: Drug recovery in healthy human subjects (8 subjects) assessed as mercapturate plus cysteine conjugate level at 20 mg/kg, po; format: ADME, organism-based; details: in vivo
[33] = Elimination half life in healthy adult male human subject at 12 mg/kg, iv; format: ADME, organism-based; details: in vivo, read-out: beta t1/2 (converted)
[34] = test system: Homo sapiens; experiment: Drug recovery in healthy human subjects (8 subjects) assessed as glucuronide conjugate level at 20 mg/kg, po; format: ADME, organism-based; details: in vivo
[35] = test system: Homo sapiens; experiment: Mean drug recovery in poisoned human patient (15 patients) without liver damage receiving cysteamine treatment at 20 mg/kg, po; format: ADME, organism-based; details: in vivo
[36] = test system: Homo sapiens; experiment: Drug recovery in poisoned human patient (8 patients) with severe liver damage receiving NAC treatment assessed as mercapturate plus cysteine conjugate level at 20 mg/kg, po; format: ADME, organism-based; details: in vivo
[37] = test system: Homo sapiens; experiment: Drug recovery in poisoned human patient (15 patients) without liver damage receiving cysteamine treatment assessed as mercapturate plus cysteine conjugate level at 20 mg/kg, po; format: ADME, organism-based; details: in vivo
[38] = test system: Homo sapiens; experiment: Drug recovery in poisoned human patient (15 patients) without liver damage receiving cysteamine treatment assessed as glucuronide conjugate level at 20 mg/kg, po; format: ADME, organism-based; details: in vivo
[39] = test system: Homo sapiens; experiment: Distribution half life in healthy adult male human subject at 12 mg/kg, iv; format: ADME, organism-based; details: in vivo
[40] = test system: Homo sapiens; experiment: Drug recovery in poisoned human patient (3 patients) with severe liver damage receiving methionine treatment assessed as sulphate conjugate level at 20 mg/kg, po; format: ADME, organism-based; details: in vivo
[41] = test system: Homo sapiens; experiment: Drug recovery in poisoned human patient (23 patients) without liver damage receiving NAC treatment assessed as glucuronide conjugate level at 20 mg/kg, po; format: ADME, organism-based; details: in vivo
[42] = test system: Homo sapiens; experiment: Drug recovery in poisoned human patient (8 patients) with severe liver damage receiving supportive treatment assessed as sulphate conjugate level at 20 mg/kg, po; format: ADME, organism-based; details: in vivo
[43] = Elimination half life in healthy adult male human subject at 12 mg/kg, po; format: ADME, organism-based; details: in vivo, read-out: beta t1/2 (converted)
[44] = Volume of distribution at central and peripheral compartment in healthy adult male human subject at 12 mg/kg, iv; details: in vivo
[45] = test system: Homo sapiens; experiment: Drug recovery in healthy human subjects (8 subjects) assessed as sulphate conjugate level at 20 mg/kg, po; format: ADME, organism-based; details: in vivo
[46] = test system: Homo sapiens; experiment: Drug recovery in poisoned human patient (8 patients) without liver damage receiving methionine treatment assessed as glucuronide conjugate level at 20 mg/kg, po; format: ADME, organism-based; details: in vivo
[47] = Apparent volume of distribution in human; details: in vivo
[48] = test system: Homo sapiens; experiment: Mean drug recovery in poisoned human patient (3 patients) with severe liver damage receiving methionine treatment at 20 mg/kg, po; format: ADME, organism-based; details: in vivo
[49] = Half life in human; format: ADME, organism-based; details: in vivo
[50] = test system: Homo sapiens; experiment: Renal clearance in healthy human assessed as paracetamol glucuronide level at 20 mg/kg; format: ADME, organism-based, Kidney; details: in vivo

Which CL [1] does the source give for `CC(=O)Nc1ccc(OS(=O)(=O)O)cc1` here?
The CL was 166 mL/min.

For `CC(=O)Nc1ccc(O)cc1` [ACETAMINOPHEN], which Drug recovery [2] is on record?
The Drug recovery was 15.2%.

What about the Drug recovery [3] of the same molecule?
The Drug recovery was 75.3%.

What about the bioavailability [4] of the same molecule?
The bioavailability was 76%.

And the Drug recovery [5]?
The Drug recovery was 10.1%.

And the Drug recovery [6]?
The Drug recovery was 10.6%.

What about the Drug recovery [7] of the same molecule?
Its Drug recovery is 8.1%.

What about the Drug recovery [8] of the same molecule?
The Drug recovery was 13.8%.

What about the Drug recovery [9] of the same molecule?
The Drug recovery was 6.9%.

And the Vd [10]?
Its Vd is 0.509 L/kg.

And the Vd at 2 min [11]?
The Vd at 2 min was 65 L.

And the Drug recovery [12]?
Its Drug recovery is 13.3%.

And the Drug recovery [13]?
The Drug recovery was 60.9%.

And the bioavailability [14]?
The bioavailability was 75%.

What about the half-life [15] of the same molecule?
The half-life was 2.17 h.

What about the Drug recovery [16] of the same molecule?
Its Drug recovery is 11.9%.

What about the Drug recovery [17] of the same molecule?
Its Drug recovery is 14.5 g.

What about the Drug recovery [18] of the same molecule?
Its Drug recovery is 11.8 g.

What about the Drug excretion [19] of the same molecule?
The Drug excretion was 30%.

What about the Drug recovery [20] of the same molecule?
The Drug recovery was 10.3 g.

What about the Drug recovery [21] of the same molecule?
Its Drug recovery is 13 g.

And the Drug recovery [22]?
The Drug recovery was 13.4 g.

And the Drug recovery [23]?
The Drug recovery was 9.3%.

And the Drug recovery [24]?
Its Drug recovery is 66.5%.

And the Drug excretion [25]?
The Drug excretion was 4%.

And the Drug recovery [26]?
The Drug recovery was 68.9%.

And the dose excreted [27]?
Its dose excreted is 2%.

And the Drug recovery [28]?
The Drug recovery was 14.5%.

What about the dose excreted at 24 h [29] of the same molecule?
Its dose excreted at 24 h is 4%.

What about the half-life [30] of the same molecule?
Its half-life is 2 h.

What about the Drug excretion [31] of the same molecule?
The Drug excretion was 55%.

And the Drug recovery [32]?
Its Drug recovery is 8%.

And the half-life [33]?
The half-life was 1.98 h.

And the Drug recovery [34]?
Its Drug recovery is 54.7%.

What about the Drug recovery [35] of the same molecule?
The Drug recovery was 14.5 g.

And the Drug recovery [36]?
The Drug recovery was 16.5%.

And the Drug recovery [37]?
Its Drug recovery is 6.4%.

And the Drug recovery [38]?
The Drug recovery was 72.4%.

What about the alphat1/2 [39] of the same molecule?
Its alphat1/2 is 0.13 h.

What about the Drug recovery [40] of the same molecule?
The Drug recovery was 9.1%.

What about the Drug recovery [41] of the same molecule?
Its Drug recovery is 63.6%.

What about the Drug recovery [42] of the same molecule?
The Drug recovery was 9.7%.

And the half-life [43]?
The half-life was 1.97 h.

And the Vd [44]?
The Vd was 0.897 L/kg.

What about the Drug recovery [45] of the same molecule?
Its Drug recovery is 32.3%.

What about the Drug recovery [46] of the same molecule?
The Drug recovery was 73.9%.

What about the Vd [47] of the same molecule?
Its Vd is 0.9 L/kg.

And the Drug recovery [48]?
The Drug recovery was 13.7 g.

Which results are given for `CCOc1ccc(NC(C)=O)cc1` [PHENACETIN]?
dose excreted [27]: < 0.5%; half-life [49]: 1 h

For `CC(=O)Nc1ccc(O[C@@H]2O[C@H](C(=O)O)[C@@H](O)[C@H](O)[C@H]2O)cc1` [ACETAMINOPHEN GLUCURONIDE], which CL [50] is on record?
Its CL is 130 mL/min.
